Results as given in patent publication US20230357239A1, “PYRIDO[2,3-D]PYRIMIDIN-4-AMINES AS SOS1 INHIBITORS” (Bayer Aktiengesellschaft, priority 2020, published 2023).
pIC50: −log10 of the molar value.

biological target: human SOS1 (SOS1) with human K-RasG12C (Homo sapiens (Human), UniProt Q07889); assay: hK-RasG12C interaction assay with hSOS1 (HTRF); assay type: binding; details: GST-hK-RasG12C and His-hSOS1, 60 min incubation at 20° C, mean, read-out: K-RasG12C - SOS interaction assay IC50 - [mol/l] (mean)
Sequence (Q07889 564-1049): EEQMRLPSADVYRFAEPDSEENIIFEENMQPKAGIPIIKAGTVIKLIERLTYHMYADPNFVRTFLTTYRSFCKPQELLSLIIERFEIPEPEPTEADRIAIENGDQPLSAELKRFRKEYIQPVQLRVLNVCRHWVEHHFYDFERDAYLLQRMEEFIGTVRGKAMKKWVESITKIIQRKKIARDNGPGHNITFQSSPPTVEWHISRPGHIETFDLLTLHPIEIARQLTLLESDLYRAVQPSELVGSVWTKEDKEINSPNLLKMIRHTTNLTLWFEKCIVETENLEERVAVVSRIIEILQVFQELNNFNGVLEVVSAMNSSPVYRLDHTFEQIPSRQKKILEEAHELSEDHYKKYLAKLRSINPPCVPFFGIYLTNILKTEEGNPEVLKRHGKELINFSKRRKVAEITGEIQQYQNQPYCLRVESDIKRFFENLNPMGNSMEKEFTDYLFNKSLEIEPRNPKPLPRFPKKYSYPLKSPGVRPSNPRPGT

Row | SMILES | pIC50
1 | CC(=O)N1CCN(c2cnc3nc(C)nc(N[C@H](C)c4cccc(C(F)(F)C(C)(C)O)c4F)c3c2)CC1 [Example 53, 1-{4-[4-({(1R)-1-[3-(1,1-difluoro-2-hydroxy-2-methylpropyl)-2-fluorophenyl]ethyl}amino)-2-methylpyrido[2,3-d]pyrimidin-6-yl]piperazin-1-yl}ethan-1-one] | 8.48
2 | CC(=O)N1CC=C(c2cnc3nc(C)nc(N[C@H](C)c4cccc(C(F)(F)C(C)(C)O)c4F)c3c2)CC1 [Example 46, 1-{4-[4-({(1R)-1-[3-(1,1-difluoro-2-hydroxy-2-methylpropyl)-2-fluorophenyl]ethyl}amino)-2-methylpyrido[2,3-d]pyrimidin-6-yl]-3,6-dihydropyridin-1(2H)-yl}ethan-1-one] | 8.57
3 | C[C@@H](Nc1ncnc2ncc(Br)cc12)c1cccc(C(F)(F)F)c1 [Example 1, 6-bromo-N-{(1R)-1-[3-(trifluoromethyl)phenyl]ethyl}pyrido[2,3-d]pyrimidin-4-amine] | 6.39
4 | COc1nc2nc(C)nc(N[C@H](C)c3cccc(C(F)(F)F)c3C)c2cc1N1CCCS1(=O)=O [Example 23, 2-[7-methoxy-2-methyl-4-({(1R)-1-[2-methyl-3-(trifluoromethyl)phenyl]ethyl}amino)pyrido[2,3-d]pyrimidin-6-yl]-1 lambda^6,2-thiazolidine-1,1-dione] | 5.58
